Holding throughout (format): cell-based
For one assay, the system named is KG-1a cells. Description: Cell viability assay (CellTiter Glo, 72 hours) in KG-1a cells. The method, then: (§1) KG1a (CCL-246.1, ATCC) and CCRF-CEM (CCL-199, ATCC) cells were grown in RPMI-1640 media containing 10% FBS in T-75 flasks to a density of 1×10^6 cells per mL. Exponentially gown cells were used for the assay. Day 1: 7.5×10^3 cells were seeded in each well of 96 well plate. Day 2: Cells were treated with serial dilutions of each compound (starting 20 uM) or with DMSO as control for 72 hours. Day 5: CellTiter Glo (G9241, Promega) was added to the media of each well and measured by plate reader (Synergy 4, Biotek). Data analysis: Using GraphPad Prism 7 (GraphPad).
A general note: In ATP-based viability assays light output follows the ATP content of the culture.

For a further assay, the system named is DNMT-1. Description: Western blot analysis of DNMT-1 in CEM cells. The settings on record: DNMT-1 depletion in CEM cells, 96 hours. The method, then: Cells were treated with serial dilutions of each compound (starting 100 uM for HCT-116 and NCI-H23 cells, and 20 uM for KG-1a and CCRF-CEM cells) or with DMSO as control for 96 hours. Cell lysates were collected and proteins were separated with a SDS-PAGE gel, transferred to a nitrocellulose membrane, blocked in 5% non-fat milk in TBS-T, and probed with anti DNMT-1 (1:7000) rabbit polyclonal antibodies (cat #ab19905, Abcam) in 5% non-fat milk in TBS-T overnight. Membranes were washed three times with TBS-T. The anti-rabbit IgG (7074p2, Cell Signaling) secondary antibody was added at a concentration of 1:5000 in 5% non-fat milk in TBS-T for two hours in room temperature. Membranes were then washed three times with TBS-T, 5 minutes each time. Membranes were then incubated with SuperSignal West Pico Chemiluminescent Substrate (#34080 Thermo) and exposed onto film. Membranes were stripped with stripping buffer (#21059, Thermo) and re-probed with mouse anti tubulin 1:10,000 (T9026, Sigma) and anti-mouse IgG 1:5,000 (70′76p2, Cell Signaling).
(In general: Immunoblotting shows a protein as a band on a membrane.)

Another assay concerns CCRF-CEM cells. In words: Cell viability assay (CellTiter Glo, 72 hours) in CEM cells. The method, then:
as §1

[1] abbreviates: Homo sapiens, KG-1a, 72 h, read-out: Cell Line IC50 (μM) KG-1a.
Setting [2] is: Homo sapiens, CCRF-CEM, 72 h, read-out: Cell Line IC50 (μM) CEM.
Setting [3] is: read-out: Cell Line IC50 (μM) KG-1a.
[4] abbreviates: read-out: Cell Line IC50 (μM) CEM.

Structures are written as SMILES. Read-outs that look alike come from different tables or passages of the source.

In general, IC50 refers to the concentration that inhibits the measured activity by half. With `C[C@H](NP(=O)(OC[C@H]1S[C@@H](n2cnc(N)nc2=O)CC1O)Oc1ccccc1)C(=O)OC1CCCC1` (single isomer, unassigned) [Compound 8 Diastereomer 1], the figures for the IC50 in the assay with KG-1a cells (setting [1]), with DNMT-1 (listed as 8 Diastereomer 1) and in the assay with CCRF-CEM cells (setting [2]) were 0.6 µM, 330 nM and 2.08 µM, respectively.

As to `C[C@H](NP(=O)(OC[C@H]1S[C@@H](n2cnc(N)nc2=O)CC1O)Oc1ccccc1)C(=O)OC1CCCC1` (single isomer, unassigned) [Compound 8 Diastereomer 2], the IC50 in the assay on KG-1a cells (setting [3]) amounted to 1.04 µM; in the assay on DNMT-1 (listed as 8 Diastereomer 2) it was 450 nM; in the assay on CCRF-CEM cells (setting [4]), 1.65 µM.

For `C[C@H](NP(=O)(OC[C@H]1S[C@@H](n2cnc(N)nc2=O)CC1O)Oc1cccc2ccccc12)C(=O)OCc1ccccc1` (single isomer, unassigned) [Compound 9 Diastereomer 1], the IC50 with KG-1a cells (listed as 9 Diastereomer 1, read-out: Cell Line IC50 (μM) KG-1a) amounted to 1.1 µM; in the assay on DNMT-1 (listed as 9 Diastereomer 1), 300 nM; with CCRF-CEM cells (listed as 9 Diastereomer 1, read-out: Cell Line IC50 (μM) CEM) it was 0.5 µM.

As to `C[C@H](NP(=O)(OC[C@H]1S[C@@H](n2cnc(N)nc2=O)CC1O)Oc1cccc2ccccc12)C(=O)OCc1ccccc1` (single isomer, unassigned) [Compound 9 Diastereomer 2], the IC50 with KG-1a cells (listed as 9 Diastereomer 2, read-out: Cell Line IC50 (μM) KG-1a) was 0.4 µM; with DNMT-1 (listed as 9 Diastereomer 2), 1400 nM; in the assay with CCRF-CEM cells (listed as 9 Diastereomer 2, read-out: Cell Line IC50 (μM) CEM), 0.2 µM.

As for `CC(C)COC(=O)[C@H](C)NP(=O)(OC[C@H]1S[C@@H](n2cnc(N)nc2=O)CC1O)Oc1cccc2ccccc12` (single isomer, unassigned) [Compound 10 Diastereomer 1], the IC50 in the assay with KG-1a cells (setting [1]) stood at 0.3 µM; with DNMT-1 (listed as 10 Diastereomer 1), 600 nM; with CCRF-CEM cells (setting [2]), 0.2 µM.

In the case of `CC(C)COC(=O)[C@H](C)NP(=O)(OC[C@H]1S[C@@H](n2cnc(N)nc2=O)CC1O)Oc1cccc2ccccc12` (single isomer, unassigned) [Compound 10 Diastereomer 2], the IC50 came out at 0.3 µM with KG-1a cells (setting [3]), 800 nM with DNMT-1 (listed as 10 Diastereomer 2) and 0.2 µM with CCRF-CEM cells (setting [4]).

Turning to `CCC(CC)COC(=O)[C@H](C)NP(=O)(OC[C@H]1S[C@@H](n2cnc(N)nc2=O)C[C@@H]1O)Oc1cccc2ccccc12` (single isomer, unassigned) [Compound 11 Diastereomer 1], the values for the IC50 with KG-1a cells (setting [1]), with DNMT-1 and in the assay with CCRF-CEM cells (setting [2]) were 0.6 µM, 500 nM and 0.2 µM, respectively.

`CCC(CC)COC(=O)[C@H](C)NP(=O)(OC[C@H]1S[C@@H](n2cnc(N)nc2=O)CC1O)Oc1cccc2ccccc12` (single isomer, unassigned) [Compound 11 Diastereomer 2]: the results for the IC50 in the assay on KG-1a cells (setting [1]), in the assay with DNMT-1 and in the assay on CCRF-CEM cells (setting [2]) were 0.6 µM, 500 nM and 0.08 µM, respectively.

As to `CC(C)OC(=O)[C@H](C)NP(=O)(OC[C@H]1S[C@@H](n2cnc(N)nc2=O)C[C@@H]1O)Oc1cccc2ccccc12` (single isomer, unassigned) [Compound 12 Diastereomer 1], the IC50 was found to be 0.6 µM with KG-1a cells (setting [1]); 800 nM with DNMT-1 (listed as 12 Diastereomer 1); 0.3 µM in the assay with CCRF-CEM cells (listed as 12 Diastereomer 1, read-out: Cell Line IC50 (μM) CEM).

With `CC(C)OC(=O)[C@H](C)NP(=O)(OC[C@H]1S[C@@H](n2cnc(N)nc2=O)C[C@@H]1O)Oc1cccc2ccccc12` (single isomer, unassigned) [Compound 12 Diastereomer 2], the IC50 in the assay on KG-1a cells (setting [3]) was 0.7 µM; in the assay with DNMT-1 (listed as 12 Diastereomer 2) it was 1000 nM; in the assay with CCRF-CEM cells (listed as 12 Diastereomer 2, read-out: Cell Line IC50 (μM) CEM) it was 0.1 µM.

For the compound `C[C@H](N[P@](=O)(OC[C@H]1S[C@@H](n2cnc(N)nc2=O)C[C@@H]1O)Oc1ccccc1)C(=O)OCc1ccccc1` [Compound 1, Benzyl ((S)-(((2R,3S,5R)-5-(4-amino-2-oxo-1,3,5-triazin-1(2H)-yl)-3-hydroxytetrahydrothiophen-2-yl)methoxy)(phenoxy)phosphoryl)-L-alaninate], the IC50 in the assay on KG-1a cells (setting [1]) is 0.92 µM; with DNMT-1, 1200 nM; in the assay on CCRF-CEM cells (setting [2]), 0.13 µM.

Turning to `CC(C)COC(=O)[C@H](C)N[P@](=O)(OC[C@H]1S[C@@H](n2cnc(N)nc2=O)C[C@@H]1O)Oc1ccccc1` [Compound 2, Isobutyl ((S)-(((2R,3S,5R)-5-(4-amino-2-oxo-1,3,5-triazin-1(2H)-yl)-3-hydroxytetrahydrothiophen-2-yl)methoxy)(phenoxy)phosphoryl)-L-alaninate], the figures for the IC50 in the assay on KG-1a cells (setting [1]), in the assay with DNMT-1 and in the assay with CCRF-CEM cells (setting [2]) were 1.34 µM, 800 nM and 0.24 µM, respectively.

Turning to `CC(C)OC(=O)[C@H](C)N[P@](=O)(OC[C@H]1S[C@@H](n2cnc(N)nc2=O)C[C@@H]1O)Oc1ccccc1` [Compound 4, Isopropyl ((S)-(((2R,3S,5R)-5-(4-amino-2-oxo-1,3,5-triazin-1(2H)-yl)-3-hydroxytetrahydrothiophen-2-yl)methoxy)(phenoxy)phosphoryl)-L-alaninate], the IC50 in the assay on KG-1a cells (setting [1]) came to 0.57 µM; with DNMT-1, 850 nM; with CCRF-CEM cells (setting [2]) it was 0.24 µM.

Regarding `COC(=O)[C@H](C)N[P@](=O)(OC[C@H]1S[C@@H](n2cnc(N)nc2=O)C[C@@H]1O)Oc1ccccc1` [Compound 5, Methyl ((S)-(((2R,3S,5R)-5-(4-amino-2-oxo-1,3,5-triazin-1(2H)-yl)-3-hydroxytetrahydrothiophen-2-yl)-methoxy)(phenoxy)-phosphoryl)-L-alaninate], the IC50 amounted to 1.67 µM with KG-1a cells (setting [1]), 610 nM in the assay with DNMT-1 and 2.06 µM in the assay with CCRF-CEM cells (setting [2]).

Take `CCOC(=O)[C@H](C)N[P@](=O)(OC[C@H]1S[C@@H](n2cnc(N)nc2=O)C[C@@H]1O)Oc1ccccc1` [Compound 6, Ethyl ((S)-(((2R,3S,5R)-5-(4-amino-2-oxo-1,3,5-triazin-1(2H)-yl)-3-hydroxytetrahydrothiophen-2-yl)-methoxy)(phenoxy)-phosphoryl)-L-alaninate]: the values for the half-inhibitory concentration (IC50) in the assay with KG-1a cells (setting [1]), with DNMT-1 and in the assay with CCRF-CEM cells (setting [2]) were 0.31 µM, 350 nM and 1.73 µM, respectively.

With `C[C@H](N[P@](=O)(OC[C@H]1S[C@@H](n2cnc(N)nc2=O)C[C@@H]1O)Oc1ccccc1)C(=O)OCc1ccc([N+](=O)[O-])o1` [Compound 7, (5-nitrofuran-2-yl)methyl ((S)-(((2R,3S,5R)-5-(4-amino-2-oxo-1,3,5-triazin-1(2H)-yl)-3-hydroxytetrahydro-thiophen-2-yl)-methoxy)(phenoxy)-phosphoryl)-L-alaninate], the IC50 in the assay with KG-1a cells (setting [1]) was determined as 0.76 µM; in the assay with DNMT-1 it was 220 nM; in the assay with CCRF-CEM cells (setting [2]), 1.71 µM.

Turning to `CCC(CC)COC(=O)[C@H](C)N[P@](=O)(OC[C@H]1S[C@@H](n2ccc(N)nc2=O)CC1O)Oc1ccccc1` (stereo partly drawn) [Compound 14], the IC50 in the assay on KG-1a cells (setting [1]) came to 0.62 µM; in the assay with DNMT-1, 1000 nM; with CCRF-CEM cells (setting [2]), 0.15 µM.

On to `CC(C)OC(=O)[C@H](C)N[P@](=O)(OC[C@H]1S[C@@H](n2ccc(N)nc2=O)CC1O)Oc1ccccc1` (stereo partly drawn) [Compound 15], for which the IC50 with KG-1a cells (setting [1]) was found to be 0.9 µM; in the assay with DNMT-1 it was 330 nM; in the assay on CCRF-CEM cells (setting [2]), 0.37 µM.

On to `Nc1ccn([C@H]2C[C@@H](O)[C@@H](CO)S2)c(=O)n1` [T-dCyd, 4-amino-1-[(2R,4R,5R)-4-hydroxy-5-(hydroxymethyl)thiolan-2-yl]pyrimidin-2-one, reference compound], for which the IC50 in the assay on KG-1a cells (Homo sapiens, read-out: Cell Line IC50 (μM) KG-1a) is 0.48 µM; with DNMT-1, 470 nM; with CCRF-CEM cells (Homo sapiens, CCRF-CEM, read-out: Cell Line IC50 (μM) CEM), 0.08 µM.

The values are drawn from patent US20210363170A1, “4'-THIO-NUCLEOTIDE AND -NUCLEOSIDE PRODRUGS FOR THE TREATMENT OF CANCER” (Southern Research Institute, priority 2018, published 2021).
